How the values were obtained:
[1] = molecular target: T1, His-tagged BRD4 BD1 (46-168) (Homo sapiens, UniProt O60885); test: AlphaLISA competition assay, BRD4 BD1; type: binding; conditions: BRD4-BD1, AlphaLISA competition with biotinylated histone H4K5/8/12/16(Ac) peptide, 10 nM
T1 construct: His-tagged BRD4 BD1 (46-168) and biotinylated histone H4K5/8/12/16(Ac) peptide
Procedure: (§1) Exemplary compounds were tested for ability to bind to bromodomain-containing protein 4 (BRD4).
(§2) Compounds were tested using a developed AlphaLISA competition assay. Briefly, His-tagged BRD4 BD1 (46-168) and biotinylated histone H4K5/8/12/16(Ac) peptide (ANASPEC, AS-64989-1) were incubated in 20 mM HEPES pH 7.5, 100 mM NaCl, 0.5 mM TCEP, 0.1% BSA, 0.02% CHAPS at a final concentration of 10 nM. Test compounds were serially diluted ten times in the same buffer and were added to the BRD4-peptide mixture for 1 h incubation at room temperature. Following incubation, Streptavidin AlphaLISA acceptor beads (PerkinElmer, AL125M) were added to BRD4-peptide-compound samples to a final concentration of 0.01 mg/mL for a 0.5 h incubation at room temperature in the dark. Following incubation, the same amount of Nickel Chelate Alpha donor beads (PerkinElmer, AS101M) were added to the samples for a final 1 h incubation. The AlphaLISA signals were measured using an EnVision plate reader (PerkinElmer). The data were uploaded to Screening Ultra (Dotmatics) to determine the half-maximal inhibitory concentration (IC50) for each test compound.

[2] = molecular target: T2, His-tagged BRD4 BD2 (333-460) (Homo sapiens, UniProt O60885); test: AlphaLISA competition assay, BRD4 BD2; type: binding; conditions: BRD4-BD2, AlphaLISA competition with biotinylated histone H4K5/8/12/16(Ac) peptide, 20 nM
T2 construct: The same assay was developed for His-tagged BRD4 BD2 (333-460) and biotinylated histone H4K5/8/12/16(Ac) peptide
Procedure: as §1, §2
The same assay was developed for His-tagged BRD4 BD2 (333-460) and biotinylated histone H4K5/8/12/16(Ac) peptide at a final concentration of 20 nM.

[3] = test system: T-Rex 293 cell line SC cells having increased expression of BCL6 protein; test: Cellular growth inhibition assay, T-Rex 293 SC cells with doxycycline (CellTiter-Glo); type: cell-based; conditions: T-Rex 293 SC cells with 10 ng/mL doxycycline (increased BCL6 expression), 72 hours, CellTiter-Glo 2.0
Procedure: (§3) Exemplary compounds were tested for ability to inhibit the proliferation of the following types of cells: (i) a T-Rex 293 cell line having increased expression of BCL6 protein due to exposure of doxycycline and (ii) a T-Rex 293 cell line lacking increased expression of BCL6 protein.
(§4) The following types of cells were prepared for this experiment: (i) a T-Rex 293 cell line having increased expression of BCL6 protein due to exposure to doxycycline and (ii) a T-Rex 293 cell line lacking increased expression of BCL6 protein. Ability of the test compounds to inhibit proliferation of the foregoing cell types was evaluated according to the procedures set forth below.
(§5) The doxycycline-inducible BCL6 protein expressing cell line was established using the following protocol: T-Rex 293 cells were purchased from Invitrogen (Cat #R71007) and transfected using Lipofectamine 2000 with the wild-type BCL6 protein sequence cloned into the pcDNA4/TO vector. Transfected cells were selected using 400 μg/mL Zeocin (Invitrogen Cat #R25001). Following selection, single clones were raised and maintained in Dulbecco's Modified Eagle Medium (DMEM) supplemented with 10% w/w Tetracycline-free fetal bovine serum (FBS) and 250 μg/mL Zeocin. Clones were analyzed for expression of BCL6 protein in the presence and absence of 10 ng/mL doxycycline (Sigma Cat #D9891), and a single doxycycline-inducible clone (hereinafter “SC”) was selected for use in downstream assays.
(§6) The SC cells were seeded on poly-D-lysine coated, black clear-bottom 384-well plates at 2500/well, in 25 μL Dulbecco's Modified Eagle Medium (DMEM) supplemented with 10% w/w Tetracycline-free fetal bovine serum (FBS) and 1% w/w pen-strep, with or without 10 ng/mL doxycycline. Pen-Strep is a commercially available mixture of penicillin G and streptomycin, which is used in mammalian cell culture media to prevent bacterial contamination. Dulbecco's Modified Eagle Medium (DMEM) supplemented with 10% w/w Tetracycline-free fetal bovine serum (FBS) and 1% w/w pen-strep, with or without 10 ng/mL doxycycline is herein referred to as Treatment Medium. Following seeding of cells in the plates, the plates were spun at 300×g for 30 seconds, then equilibrated to room temperature for 30 minutes, and then deposited in a humidified tissue culture incubator maintained at 37° C. with 5% CO2.
(§7) At 24 hours after seeding of the cells, dilutions of test compound were prepared in DMSO and dissolved in Treatment Medium, to achieve a final DMSO concentration of 0.5% w/w, thereby providing the Test Compound Solution. A 25 μL aliquot of the Test Compound Solution was added to cells in the well plates. An equal volume of a solution containing DMSO and Treatment Medium was used as a negative control. Following treatment of cells with Test Compound Solution or said equal volume of a solution containing DMSO and Treatment Medium, the plates were spun at 300×g for 30 seconds, and then left in an incubator for 72 hours.
(§8) At the end of the treatment duration, cell viability was quantified with CellTiter-Glo 2.0 reagent (Promega Cat #G9243). For this purpose, plates were equilibrated to room temperature for 30 minutes, and then 25 μL of CellTiter-Glo 2.0 reagent was added to cells in the plate wells. Plates were then agitated on a shaker for two minutes at 500 rpm and subsequently incubated at room temperature for 10 minutes. Following incubation, the plates were spun at 3000×g for 30 seconds, then sealed with an optical adhesive cover, and luminescence readings were measured with an EnVision Plate Reader (Perkin Elmer).
(§9) Data was normalized using zero luminescence for baseline. A four-parameter non-linear regression curve fit was applied to dose-response data in GraphPad Prism data analysis software to determine the half-maximal growth inhibitory concentration (GI50) for each test compound.

[4] = test system: T-Rex 293 cell line SC cells lacking increased expression of BCL6 protein; test: Cellular growth inhibition assay, T-Rex 293 SC cells without doxycycline (CellTiter-Glo); type: cell-based; conditions: T-Rex 293 SC cells not exposed to doxycycline (no increased BCL6 expression), 72 hours, CellTiter-Glo 2.0
Procedure: as §3, §4, §5, §6, §7, §8, §9

| SMILES | IC50 [1] [nM] | IC50 [2] [nM] | GI50 [3] [nM] | GI50 [4] [nM] |
| --- | --- | --- | --- | --- |
| CCS(=O)(=O)Nc1ccc(Oc2cccc(OCCCN3CCN(CC4CCN(c5ncc(Cl)c(Nc6ccc7c(c6)cc(OCC(=O)NC)c(=O)n7C)n5)CC4)CC3)c2)c(-c2cn(C)c(=O)c3[nH]ccc23)c1 [Compound I-6] | 5 to 50 | 5 to 50 | < 500 | < 500 |
| CCS(=O)(=O)Nc1ccc(Oc2ccc(OCCN3CCN(CC4CCN(c5ncc(Cl)c(Nc6ccc7c(c6)cc(OCC(=O)NC)c(=O)n7C)n5)CC4)CC3)cc2)c(-c2cn(C)c(=O)c3[nH]ccc23)c1 [Compound I-7] | 5 to 50 | 5 to 50 | < 500 | < 500 |
| CCS(=O)(=O)Nc1ccc(Oc2ccc(OCCN3CCN(CCCC4CCN(c5ncc(Cl)c(Nc6ccc7c(c6)cc(OCC(=O)NC)c(=O)n7C)n5)CC4)CC3)cc2)c(-c2cn(C)c(=O)c3[nH]ccc23)c1 [Compound I-12] | 5 to 50 | 5 to 50 | < 500 | < 500 |
| CCS(=O)(=O)Nc1ccc(Oc2cccc(OCCN3CCN(CCCC4CCN(c5ncc(Cl)c(Nc6ccc7c(c6)cc(OCC(=O)NC)c(=O)n7C)n5)CC4)CC3)c2)c(-c2cn(C)c(=O)c3[nH]ccc23)c1 [Compound I-11] | 5 to 50 | 5 to 50 | < 500 | < 500 |
| CCS(=O)(=O)Nc1ccc(Oc2ccc(OCCCCN3CCN(CC4CCN(c5ncc(Cl)c(Nc6ccc7c(c6)cc(OCC(=O)NC)c(=O)n7C)n5)CC4)CC3)cc2)c(-c2cn(C)c(=O)c3[nH]ccc23)c1 [Compound I-10] | 5 to 50 | < 5 | < 500 | < 500 |
| CCS(=O)(=O)Nc1ccc(Oc2cccc(CCN3CCN(CC4CCN(c5ncc(Cl)c(Nc6ccc7c(c6)cc(OCC(=O)NC)c(=O)n7C)n5)CC4)CC3)c2)c(-c2cn(C)c(=O)c3[nH]ccc23)c1 [Compound I-17] | 5 to 50 | 5 to 50 | > 3000 | < 500 |
| CCS(=O)(=O)Nc1ccc(Oc2ccc(CCN3CCN(CC4CCN(c5ncc(Cl)c(Nc6ccc7c(c6)cc(OCC(=O)NC)c(=O)n7C)n5)CC4)CC3)cc2)c(-c2cn(C)c(=O)c3[nH]ccc23)c1 [Compound I-16, 2-[[6-[[5-chloro-2-[4-[[4-[2-[4-[4-(ethylsulfonylamino)-2-(6-methyl-7-oxo-1H-pyrrolo[2,3-c]pyridin-4-yl)phenoxy]phenyl]ethyl]piperazin-1-yl]methyl]-1-piperidyl]pyrimidin-4-yl]amino]-1-methyl-2-oxo-3-quinolyl]oxy]-N-methyl-acetamide] | 5 to 50 | < 5 | < 500 | < 500 |
| CCS(=O)(=O)Nc1ccc(Oc2cccc(OCCCCN3CCN(CC4CCN(c5ncc(Cl)c(Nc6ccc7c(c6)cc(OCC(=O)NC)c(=O)n7C)n5)CC4)CC3)c2)c(-c2cn(C)c(=O)c3[nH]ccc23)c1 [Compound I-9] | 5 to 50 | 5 to 50 | < 500 | < 500 |
| CCS(=O)(=O)Nc1ccc(Oc2ccc(OCCN3CCN(CCC4CCN(c5ncc(Cl)c(Nc6ccc7c(c6)cc(OCC(=O)NC)c(=O)n7C)n5)CC4)CC3)cc2)c(-c2cn(C)c(=O)c3[nH]ccc23)c1 [Compound I-14] | 5 to 50 | < 5 | < 500 | 500 to 1500 |
| CCS(=O)(=O)Nc1ccc(Oc2cccc(OCCN3CCN(CCC4CCN(c5ncc(Cl)c(Nc6ccc7c(c6)cc(OCC(=O)NC)c(=O)n7C)n5)CC4)CC3)c2)c(-c2cn(C)c(=O)c3[nH]ccc23)c1 [Compound I-13] | 5 to 50 | 5 to 50 | < 500 | < 500 |
| CCS(=O)(=O)Nc1ccc(Oc2ccc(OCCCN3CCN(CC4CCN(c5ncc(Cl)c(Nc6ccc7c(c6)cc(OCC(=O)NC)c(=O)n7C)n5)CC4)CC3)cc2)c(-c2cn(C)c(=O)c3[nH]ccc23)c1 [Compound I-8] | 5 to 50 | 5 to 50 | < 500 | < 500 |

— patent US20260028338A1, “HETEROBIFUNCTIONAL COMPOUNDS AND METHODS OF TREATING DISEASE” (Halda Therapeutics OpCo, Inc., priority 2023, published 2026)
